# Measured values as given in US20050148634A1, “1-N-Aminobenzimidazole derivatives” (ZERIA PHARMACEUTICAL CO., LTD, priority 2002, published 2005).
# What was measured:
# human CYP2C19 = biological target: T1, human CYP2C19 (Homo sapiens, UniProt P33261); assay: Test 3 human CYP2C19 activity inhibition test (S-(+)-mephenyloin to 4'-hydroxymephenyloin); format: in vitro ADME; details: test compound 10 μM, microsomes from human CYP2C19 expression system, formed 4'-hydroxymephenyloin compared with control
# T1 construct: purchased Sumitomo Chemical Co., Ltd
# T1 sequence (P33261 whole entry): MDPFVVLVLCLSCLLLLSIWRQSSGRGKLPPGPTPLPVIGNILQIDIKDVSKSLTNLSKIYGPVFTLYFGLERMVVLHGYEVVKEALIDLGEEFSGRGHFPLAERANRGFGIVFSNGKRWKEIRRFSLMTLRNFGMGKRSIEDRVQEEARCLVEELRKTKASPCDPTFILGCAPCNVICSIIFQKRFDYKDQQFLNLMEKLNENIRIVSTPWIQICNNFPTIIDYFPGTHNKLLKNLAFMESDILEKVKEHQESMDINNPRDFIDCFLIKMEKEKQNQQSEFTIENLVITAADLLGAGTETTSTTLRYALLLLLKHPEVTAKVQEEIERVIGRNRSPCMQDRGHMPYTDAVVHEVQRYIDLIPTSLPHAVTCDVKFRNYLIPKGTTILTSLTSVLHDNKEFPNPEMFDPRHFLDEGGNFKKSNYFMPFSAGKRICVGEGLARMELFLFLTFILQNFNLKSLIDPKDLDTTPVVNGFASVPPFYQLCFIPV
# Description: Test 3 (Human CPY2C19 Activity Inhibition Test)
# CYP2C19 specifically induces the metabolic reaction of from S-(+)-mephenyloin into 4′-hydroxymephenyloin. Using the CYP2C19 expression system, the inhibitory effect of each test substance was investigated based on the amount (concentration) of formed 4′-hydroxymephenylion as an index of CYP2C19 activity.
# a) Metabolic Activity Test
# As a reaction mixture, a 125 μmol/L solution of S-(+)-mephenyloin in methanol (50 μL) and a 25 μmol/L solution of each test substance in methanol (0, 10, 100 or 200 μL) were added to 10-mL test tube made of glass, and the solvent was distilled off under a nitrogen gas stream (40° C.).
# After incubated at 37° C. for 10 minutes, a 12% aqueous solution of perchloric acid (50 μL) was added to terminate the reaction.
# Subsequent to the termination of the reaction, 10 μg/mL methyl p-hydroxybenzoate (50 μL) as an internal standard (I.S.) and diethyl ether (2 mL) were added. The resulting mixture was shaken for 10 minutes, and then centrifuged (3,000 rpm, 10 minutes). The organic layer was separately collected, and under a nitrogen gas stream (40° C.), the solvent was distilled off. The residue was dissolved in a mobile phase (200 μL), and an analysis was conducted by high performance liquid chromatography (HPLC).
# Using a solution of 4′-hydroxymephenyloin in lieu of the S-(+)-mephenyloin solution, a calibration line was prepared following the above-described reaction method. Quantitation was conducted based on a peak area ratio of 4′-hydroxymephenyloin to the I.S. Comparing the formed amount of 4′-hydroxymephenyloin as a control with that of 4′-hydroxymephenyloin at the time of the existence of the test compound, the comparison result was used as an index of activity.
# HPLC was conducted under the following HPLC conditions A or HPLC conditions B. […]
# [1] = system: histamine-stimulated gastric acid secretion; assay: Test 2 gastric acid secretion inhibitory effect, acute fistula method; format: in vivo, Sprague-Dawley (SD) rats; details: male SD rats, administered into the duodenum, total gastric acid secreted on 3rd-5th hours, Probit method; for ED50: Rattus norvegicus
# Description: Test 2 (Gastric Acid Secretion Inhibitory Effect)
# (1) As laboratory animals, seven-week old male Sprague-Dawley (SD) rats were purchased from CHARLES RIVER JAPAN, INC. Subsequent to preliminary rearing for 5 days or longer, they were used in an experiment.
# Each test medicine was suspended or dissolved in a 0.5% carboxymethylcellulose sodium solution to prepare a volume of 2.5 mL/kg.
# (2) Measurement of Gastric Acid Secretion
# Using rats fasted for 18 hours, histamine-stimulated gastric acid secretion in an acute fistula method following the method reported by Hiramatsu et al. (Dig. Dis. Sci., 39, 689-697 (1994)) was measured. Described specifically, each rat was lightly anesthetized with diethyl ether. After that, a winged tube needle with 3.8% citric acid solution filled therein was caused to dwell in the caudal vein. Celiotomy was performed, and the pyloric part of the stomach was ligated. A small hole was then formed in the duodenum, and a feeding tube with physiological saline filled therein was caused to dwell there. After the interior of the stomach was washed with physiological saline, a polyethylene-made fistula tube (inner diameter: 4 mm) was fitted to the proventriculus part and an incised part of the proventriculus was ligated to hold the fistula tube in place. The stomach and duodenum were returned into the abdominal cavity. Celiotomy was performed with the fistula tube and feeding tube being left extending outside, and the rat was placed in a Ballman Cage Type II. Histamine was continuously injected through the winged needle allowed to dwell in the caudal vein (8 mg/kg/h, 1.38 mL/h). Fifteen minutes later, the gastric juice was sampled, and after that, the gastric juice was sampled at intervals of 1 hour. After the amount of each gastric juice sample was recorded, it was titrated with 0.1 mol/L NaOH to a final point of pH 7.0. From the volume required for the titration, the acidity was calculated. The quantity of the secreted gastric acid was determined from the product of the amount of the gastric juice and the acidity. Incidentally, the rats were divided into groups such that the total amount of the first gastric juice samples became equal in each group. Each test medicine was administered in a volume of 2.5 mL/kg into the duodenum through the feeding tube fitted beforehand in the duodenum. To a control group, 0.5% Na—CMC solution was administered.
# (3) Analysis of the Results
# From the results so obtained, data were presented in terms of average ±S.D. The sum of quantities of gastric acid secreted on the 3rd, 4th and 5th hours after the first sampling was recorded as a total quantity of secreted gastric acid. The percent inhibition in each group was calculated from the total quantity of secreted gastric acid in the control group and the total quantity of secreted gastric acid in the group. From the percent inhibition in each group, the 50% effective dose (ED50) was next calculated by the Probit method.
# H+/K+-ATPase = biological target: T2, H+/K+-ATPase (Sus scrofa, UniProt P19156); assay: Test 1 proton pump inhibitory effect: H+/K+-ATPase enzyme inhibiting activity at pH 1; format: biochemical; details: swine stomach enzyme sample; test compound pretreated in pH 1 hydrochloric acid solution with 50% DMSO for 15 minutes; ATP substrate
# T2 construct: An interface fraction obtained by the centrifugation was collected; from tissue; host or cells: swine stomach mucosal layer, membrane fraction from the sucrose interface
# T2 sequence (P19156 2-1034 limits assumed): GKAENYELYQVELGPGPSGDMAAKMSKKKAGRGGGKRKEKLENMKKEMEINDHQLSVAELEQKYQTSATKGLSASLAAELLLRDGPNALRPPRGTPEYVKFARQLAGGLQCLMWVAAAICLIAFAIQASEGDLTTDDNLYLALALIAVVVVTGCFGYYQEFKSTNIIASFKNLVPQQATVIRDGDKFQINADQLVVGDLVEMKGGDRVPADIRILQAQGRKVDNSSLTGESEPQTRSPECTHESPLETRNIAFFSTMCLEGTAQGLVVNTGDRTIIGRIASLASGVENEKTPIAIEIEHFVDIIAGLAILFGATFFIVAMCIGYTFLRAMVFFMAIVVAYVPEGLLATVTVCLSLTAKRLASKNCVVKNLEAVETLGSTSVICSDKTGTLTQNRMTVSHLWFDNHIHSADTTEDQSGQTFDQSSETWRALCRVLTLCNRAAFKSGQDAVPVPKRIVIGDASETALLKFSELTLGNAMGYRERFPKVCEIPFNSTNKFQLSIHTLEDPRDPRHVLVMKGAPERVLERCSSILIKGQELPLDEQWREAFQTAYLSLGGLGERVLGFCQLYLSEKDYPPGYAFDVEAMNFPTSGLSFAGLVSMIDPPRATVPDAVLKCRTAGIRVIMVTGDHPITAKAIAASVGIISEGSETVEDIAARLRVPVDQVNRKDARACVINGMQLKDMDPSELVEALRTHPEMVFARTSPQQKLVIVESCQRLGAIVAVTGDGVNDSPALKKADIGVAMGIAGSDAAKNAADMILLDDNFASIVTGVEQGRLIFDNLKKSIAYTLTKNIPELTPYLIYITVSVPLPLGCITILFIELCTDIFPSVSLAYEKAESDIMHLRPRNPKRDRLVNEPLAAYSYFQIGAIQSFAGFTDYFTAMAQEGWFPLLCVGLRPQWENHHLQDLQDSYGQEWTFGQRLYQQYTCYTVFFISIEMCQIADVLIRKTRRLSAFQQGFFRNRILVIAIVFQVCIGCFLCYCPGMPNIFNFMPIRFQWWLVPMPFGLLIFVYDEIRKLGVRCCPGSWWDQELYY
# T2 sequence (P18434 whole entry partner): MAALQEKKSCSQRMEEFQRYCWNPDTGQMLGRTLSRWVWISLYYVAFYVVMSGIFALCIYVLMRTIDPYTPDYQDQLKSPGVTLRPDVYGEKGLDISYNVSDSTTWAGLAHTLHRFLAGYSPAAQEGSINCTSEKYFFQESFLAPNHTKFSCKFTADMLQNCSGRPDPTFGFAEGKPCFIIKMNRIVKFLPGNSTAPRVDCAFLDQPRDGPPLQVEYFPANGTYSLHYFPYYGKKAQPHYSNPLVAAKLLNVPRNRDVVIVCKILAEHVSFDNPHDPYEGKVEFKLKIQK
# Description: Test 1 (Proton Pump Inhibitory Effect)
# (1) Preparation of H^+/K^+-ATPase Enzyme Sample
# A swine stomach which had been stored frozen was separated into a muscularis and a mucosal layer. After the mucosal layer was disrupted with a mixer in 5 volumes of 20 mmol/L tris-HCl buffer containing 0.25 mol/L of sucrose and 1 mmol/L of EGTA (pH 7.4, hereafter abbreviated as “tris-HCl buffer”), centrifugation was conducted at 9,000×g for 30 minutes. The supernatant was gently overlaid on 20 mmol/L tris-HCl buffer containing 30% of sucrose and 1 mmol/L of EGTA (pH 7.4, 8 mL), followed by ultracentrifugation at 100,000×g for 60 minutes. An interface fraction obtained by the centrifugation was collected and subjected to centrifugation twice under 113,000×g for 60 minutes. The sediment was suspended with tris-HCl buffer, and the suspension was homogenized at low rotational speed to provide an enzyme sample. The enzyme sample was stored frozen at −80° C. Using the method reported by Smith et al. (Anal. Biochem., 150, 76-85 (1985)), the thus-obtained sample was quantitatively analyzed for its protein content with a BCA protein assay reagent. The above procedure was all conducted under water cooling.
# (2) Discussion about H+/K^+-ATPase Enzyme Inhibiting Activity at pH 1
# Following a method making use of a method for the quantitation of inorganic phosphorus as a degradation product (Biochem. Biophys. Res. Commun., 40, 880-886 (1970)), an assay of H^+/K^+-ATPase enzyme inhibiting activity was performed by using ATP as a substrate. As a hydrochloric acid solution for the pretreatment of each test compound, a 1×10^−1 mol/L (pH 1) solution of hydrochloric acid with 50% DMSO contained therein was used. Solutions of each test compound at various concentrations were added to aliquots of the hydrochloric acid solution such that the solutions were diluted 1,000-fold, and the thus-diluted solutions were left over at room temperature for 15 minutes. […] 840-μL Aliquots of an enzyme solution (5 μg proteins) diluted with the TE buffer were then added. After incubated at 37° C. for 30 minutes, 50-μL aliquots of 40 mmol/LATP solution (dissolved in the TE buffer free of KCl) were added to initiate an enzymatic reaction (total volume: 1 mL, final ATP concentration: 2 mmol/L). Subsequent to incubation at 37° C. for 30 minutes, 2-mL aliquots of ice-cold 12% trichloroacetic acid were added to terminate the enzymatic reaction. A molybdenum reagent (1 mL; 3.75% ammonium molybdate/1.5 mol/L sulfuric acid) and butyl acetate (5 mL) were added. After vigorous shaking and mixing for 5 minutes, the absorbance of a butyl acetate layer was measured at 310 nm. From absorbances obtained by dissolving KH2PO4 solutions of various concentrations in aliquots of an 8% TCA solution and performing a similar procedure, a standard curve was prepared to perform a conversion of each quantity of inorganic phosphorus. The assay was conducted in duplicate. From a difference between an average quantity of inorganic phosphorus in the case of the KCl-containing TE buffer and an average quantity of inorganic phosphorus in the case of the KCl-free TE buffer, a residual activity was determined. Supposing that the activity of the control value (DMSO) was 100%, the percent inhibition of the compound was calculated. As the inhibition potency of each test compound, an IC50 value was calculated and presented. The test compounds were al used by dissolving them in dimethyl sulfoxide immediately before their use.
SMILES,CYP2C19 activity inhibition (%) (human CYP2C19),further results
Cc1c(OCC(F)(F)F)ccnc1C[S+]([O-])c1nc2ccccc2n1NCC(C)O (mixture of isomers) [Example 55],63.8%,Gastric acid secretion inhibitory effect ED50 [1]: 3.6 mg/kg
COCCCOc1ccnc(C[S+]([O-])c2nc3ccccc3n2NCC(C)O)c1C (mixture of isomers) [Example 63],72.1%,–
COCCCOc1ccnc(C[S+]([O-])c2nc3ccccc3n2N)c1C (racemic) [Example 21],78.6%,–
Cc1c(OCCOCC(F)(F)F)ccnc1C[S+]([O-])c1nc2ccccc2n1N (racemic) [Example 23],75.6%,–
COc1c(OCCOCC(F)(F)F)ccnc1C[S+]([O-])c1nc2ccccc2n1N (racemic) [Example 24],81.9%,–
Cc1c(OCCCC(F)(F)F)ccnc1C[S+]([O-])c1nc2ccccc2n1N (racemic) [Example 25],–,Gastric acid secretion inhibitory effect ED50 [1]: 1.1 mg/kg
COc1c(OCCCC(F)(F)F)ccnc1C[S+]([O-])c1nc2ccccc2n1N (racemic) [Example 26],73.2%,Gastric acid secretion inhibitory effect ED50 [1]: 2.6 mg/kg
Cc1c(OCC(F)(F)F)ccnc1C[S+]([O-])c1nc2ccccc2n1NCCCO (racemic) [Example 36],–,"CYP2C19 activity inhibition (%) (human CYP2C19; listed as Racemic mixture of Example 36, 10 µM): 61.7%"
COC(=O)CNn1c([S+]([O-])Cc2nccc(OCC(F)(F)F)c2C)nc2ccccc21 (racemic) [Example 47],–,IC50 (H+/K+-ATPase): 4.85 µM
Cc1c(OCC(F)(F)F)ccnc1C[S+]([O-])c1nc2ccccc2n1NCCN(C)C (racemic) [Example 48],72.3%,–
COCCCOc1ccnc(C[S+]([O-])c2nc3ccccc3n2NCCCO)c1C (racemic) [Example 57],–,"CYP2C19 activity inhibition (%) (human CYP2C19; listed as Racemic mixture of Example 57, 10 µM): 73%"
COCCOc1ccnc(C[S+]([O-])c2nc3ccccc3n2NCCCO)c1C (racemic) [Example 58],67.3%,–
COc1c(OCC(F)(F)F)ccnc1C[S+]([O-])c1nc2ccccc2n1NCCCO (racemic) [Example 59],61.7%,–
Cc1c(OCCOCC(F)(F)F)ccnc1C[S+]([O-])c1nc2ccccc2n1NCCCO (racemic) [Example 60],71.4%,–
COc1c(OCCOCC(F)(F)F)ccnc1C[S+]([O-])c1nc2ccccc2n1NCCCO (racemic) [Example 61],64.8%,–
Cc1c(OCCCOCC(F)(F)F)ccnc1C[S+]([O-])c1nc2ccccc2n1NCCCO (racemic) [Example 62],95.3%,–
"Cc1c(OCC(F)(F)F)ccnc1C[S+]([O-])c1nc2ccccc2n1NCCCO (single isomer, unassigned; (+)) [(+) Isomer of Example 36]",–,CYP2C19 activity inhibition (%) (human CYP2C19; 10 µM): 70.6%; Gastric acid secretion inhibitory effect ED50 [1]: 1.1 mg/kg
"COCCCOc1ccnc(C[S+]([O-])c2nc3ccccc3n2NCCCO)c1C (single isomer, unassigned; (+)) [(+) Isomer of Example 57]",–,CYP2C19 activity inhibition (%) (human CYP2C19; 10 µM): 67.4%
"COCCCOc1ccnc(C[S+]([O-])c2nc3ccccc3n2NCCCO)c1C (single isomer, unassigned; (-)) [(−) Isomer of Example 57]",–,CYP2C19 activity inhibition (%) (human CYP2C19; 10 µM): 77.6%
"COc1ccc2nc([S@@+]([O-])Cc3ncc(C)c(OC)c3C)[nH]c2c1 [Esomeprazole, esomeprazole, reference compound]",35.4%,ED50 [1]: 2.9 mg/kg
"Cc1c(OCC(F)(F)F)ccnc1C[S+]([O-])c1nc2ccccc2[nH]1 (centres unmarked) [Lansoprazole, lansoprazole, reference compound]",8.7%,ED50 [1]: 1.1 mg/kg
"COc1ccc2[nH]c([S+]([O-])Cc3ncc(C)c(OC)c3C)nc2c1 (centres unmarked) [Omeprazole, omeprazole, reference compound]",18.4%,ED50 [1]: 3.6 mg/kg
"COc1ccnc(C[S+]([O-])c2nc3ccc(OC(F)F)cc3[nH]2)c1OC (centres unmarked) [Pantoprazole, pantoprazole, reference compound]",33.1%,ED50 [1]: 0.34 mg/kg
"COCCCOc1ccnc(C[S+]([O-])c2nc3ccccc3[nH]2)c1C (centres unmarked) [Rabeprazole, rabeprazole, reference compound]",39.8%,ED50 [1]: 2.5 mg/kg
